The values below come from US12139470B2, “Trioxolane agents” (The Regents of the University of California, priority 2017, dated 2024).

Data set [1] relates to Plasmodium berghei. The data set is described as follows: Plasmodium berghei mouse malaria model (Peters test, cures at 30 days). The conditions noted are these: po, 720 h, oral gavage, read-out: Mice Cured (%). The class given is in vivo.
Data set [2] can be described thus: Mouse liver microsome assay (half-life, intrinsic clearance). The conditions noted are these: for T1/2: half-life when incubated with mouse liver microsomes. From the text:
A second hypothesis regarding trans-R^A substitution (R^A in Scheme 1) was that the resulting de-symmetrized molecular topology would impact the vivo PK/PD properties of these analogs. […] To explore possible metabolic differences, we evaluated selected analogs with mouse liver microsomes and derived intrinsic clearance (CLint) values (Table 1).

For data set [3], the system named is Plasmodium berghei. The data set is described as follows: Plasmodium berghei mouse malaria model (Peters test, cures at 30 days). The class given is in vivo. The conditions noted are these: po, 720 h; for responders at 4 mg/kg: Table 6, 4 mg/kg. From the text: The suppressive 4-day “Peters test” ^27 involving P. berghei infected mice provides a convenient and cost effective means to assess the overall in vivo performance of pre-clinical antimalarials. […] Mice were followed for 30 days and judged to have been cured of the infection based on the lack of detectable parasitemia at the end of the study.
Female Swiss Webster Mice (average of 20 g body weight) were infected intraperitoneally with 10^6 Plasmodium berghei-infected erythrocytes collected from a previously infected mouse. […] There were five mice in each test arm. Infections were monitored by daily microscopic evaluation of Giemsa-stained blood smears starting on day seven. Parasitemia were determined by counting the number of infected and uninfected erythrocytes. Body weight was measured over the course of the treatment. […] Animal survival and morbidity were closely monitored for up to 30 days post-infection when the experiment was terminated. In some cases survival is expressed as a PD100 or PD50, the dose that produces respectively 100% or 50% cures in treated animals at 30 days post infection.

Data set [4] in a line: Kinetic solubility in PBS. Conditions: kinetic solubility in PBS (pH = 7.4), final DMSO 5%, average of three determinations. It is filed as physicochemical.
The next data set has as its system PC3 tumor. The data set is described as follows: Biodistribution of 18F probes in PC3 tumor-bearing mice. It is filed as in vivo, mouse. The method, then: FIG. 6. B9[^18F] biodistribution in PC3-bearing mice. An intravenous injection of 300 μCi was given at the tail vein of each mouse. At 30, 60 and 90 minutes post-injection, mice were sacrificed and their organs collected. […] FIG. 7. B9[^18F] biodistribution in PC3-bearing mice. An intravenous injection of 300 μCi was given at the tail vein of mice containing either a subcutaneous PC3 tumor or a renal capsule PC3 tumor. At 60 minutes post-injection, mice were sacrificed and their organs collected. […] FIG. 8. B20[^18F] biodistribution in PC3 tumor-bearing nude mice: An intravenous injection of 300 μCi was given at the tail vein of each mouse. At 60 and 90 minutes post-injection, mice were sacrificed and their organs collected. The radioactivity in the tumor appears to be stable at about 0.3% id/gram.

In data set [5] the test system is Plasmodium falciparum: strain W2. The data set is described as follows: Plasmodium falciparum growth inhibition assay (EC50 determinations). It is filed as cell-based. Conditions: W2 strain of P. falciparum.
Procedure: The growth inhibition assay for P. falciparum was conducted as described previously^29 with minor modifications. […] Following 48 hours of incubation, the cells were fixed by adding 0.1 ml of 2% formaldehyde in phosphate buffered saline, pH=7.4 (PBS). […] Parasitemias were determined from dot plots (forward scatter vs. fluorescence) using [sequence] software (Becton Dickinson). EC50 values for growth inhibition were determined from plots of percentage control parasitemia over inhibitor concentration using GraphPad Prism software.
Where [6] appears, read: Table 4, 4 mg/kg/day, once a day for four days, oral gavage, read-out: Mice Cured (%).
The mark [7] stands for this setting: Table 4, 6 mg/kg/day, once a day for four days, oral gavage, read-out: Mice Cured (%).

Structures are written as SMILES. Converted amounts (≈) assume the structure as drawn. Read-outs that look alike come from different tables or passages of the source.

As for `NCCNC(=O)C[C@@H]1CCC[C@]2(C1)OOC1(O2)C2CC3CC(C2)CC1C3` (stereo partly drawn) [12c, N-(2-Aminoethyl)-2-((R,R)-dispiro[adamantane-2,3′-[1,2,4]trioxolane-5′,1″-cyclohexan]-3″-yl)acetamide], the responders at 4 mg/kg stood at 20% with Plasmodium berghei [1] (Table 6, 4 mg/kg, 3 daily doses); 0% with Plasmodium berghei [3] (1 dose, oral gavage, read-out: Mice Cured (%)); 0% in the data set with Plasmodium berghei [3] (2 daily doses, oral gavage, read-out: Mice Cured (%)); 100% in the data set with Plasmodium berghei [3] (4 daily doses, oral gavage, read-out: Mice Cured (%)). Also, the responders at 40 mg/kg with Plasmodium berghei [1] (Table 7, 40 mg/kg, 1 dose) is 0%; in the data set on Plasmodium berghei [3] (Table 7, 40 mg/kg, 2 doses, oral gavage, read-out: Mice Cured (%)) it was 100%. In the data set with Plasmodium berghei [1] (Table 7, 80 mg/kg, 1 dose), the responders at 80 mg/kg was determined as 20%. In data set [2], the “T1/2” value came out at 1.41 h. For the same compound, the “T1/2 (min) No NADPH” value in data set [2] (mouse liver microsomes, no NADPH) amounted to 136 min. Moreover, the CLint in data set [2] (mouse, microsomes) is given as 8.2 μL/min/mg of protein. Besides, the responders at 4 mg/kg/day is 100% in the data set with Plasmodium berghei [3] (setting [6]) and 100% in the data set with Plasmodium berghei [3] (Table 5, 4 mg/kg/day, once a day for four days, oral gavage, read-out: Mice Cured (%)). Moreover, the responders at 6 mg/kg/day in the data set on Plasmodium berghei [3] (setting [7]) is 100%. For the same compound, the responders at 0.5 mg/kg/day with Plasmodium berghei [3] (Table 5, 0.5 mg/kg/day, once a day for four days, oral gavage, read-out: Mice Cured (%)) came out at 0%. The responders at 1 mg/kg/day with Plasmodium berghei [3] (Table 5, 1 mg/kg/day, once a day for four days, oral gavage, read-out: Mice Cured (%)) was determined as 0%. Besides, the responders at 2 mg/kg/day in the data set on Plasmodium berghei [3] (Table 5, 2 mg/kg/day, once a day for four days, oral gavage, read-out: Mice Cured (%)) came out at 0%.
Consider `CN1CCN(C(=O)C[C@@H]2CCC[C@]3(C2)OOC2(O3)C3CC4CC(C3)CC2C4)CC1` (stereo partly drawn) [12h, 2-((R,R)-Dispiro[adamantane-2,3′-[1,2,4]trioxolane-5′,1″-cyclohexan]-3″-yl)-1-(4-methylpiperazin-1-yl)ethan-1-one], for which the responders at 4 mg/kg/day with Plasmodium berghei [3] (setting [6]) came to 0%. Also, the responders at 6 mg/kg/day in the data set on Plasmodium berghei [3] (setting [7]) is 0%.
As for `C[C@]12CC[C@H]3[C@@H](CCC4=CC(=O)CC[C@@]43C)[C@@H]1CC[C@@H]2O` [testosterone], the “Solubility” value in data set [4] stood at 315 µM (≈ 90.9 µg/mL).
For `NC(=O)CNC(=O)C[C@@H]1CCC[C@]2(C1)OOC1(O2)C2CC3CC(C2)CC1C3` (stereo partly drawn) [12b, N-(2-Amino-2-oxoethyl)-2-((R,R)-dispiro[adamantane-2,3′-[1,2,4]trioxolane-5′,1″-cyclohexan]-3″-yl)acetamide], the “T1/2” value in data set [2] stood at 0.622 h. In data set [2] (mouse, microsomes), the CLint is 18.6 μL/min/mg of protein and the “T1/2 (min) No NADPH” value is “stable”.
As to `CC(C)(N)CNC(=O)C[C@@H]1CCC[C@]2(C1)OOC1(O2)C2CC3CC(C2)CC1C3` (stereo partly drawn) [12a, N-(2-Amino-2-methylpropyl)-2-((R,R)-dispiro[adamantane-2,3′-[1,2,4]trioxolane-5′,1″-cyclohexan]-3″-yl)acetamide], the “T1/2” value in data set [2] came to 2.82 h. Further, the CLint in data set [2] (mouse, microsomes) is listed as 4.1 μL/min/mg of protein. In addition, in data set [2] (mouse, microsomes), the “T1/2 (min) No NADPH” value is on record as “stable”. For the same compound, in the data set on Plasmodium berghei [3] (Table 2, free base, 9.5 mg/kg/day, once a day for four days, oral gavage, no parasitemia at 30 days, read-out: Mice Cured (%)), the responders at 9.5 mg/kg/day was found to be 100%. Moreover, the responders at 13.6 mg/kg/day with Plasmodium berghei [3] (Table 2, tosylate salt, 13.6 mg/kg/day, once a day for four days, oral gavage, no parasitemia at 30 days, read-out: Mice Cured (%)) was 100%. In addition, the responders at 1 mg/kg/day in the data set with Plasmodium berghei [3] (Table 3, free base, 1 mg/kg/day, four daily doses, oral gavage, read-out: Mice Cured (%)) is 0%. Further, the responders at 4 mg/kg/day in the data set on Plasmodium berghei [3] (Table 3, free base, 4 mg/kg/day, four daily doses, oral gavage, read-out: Mice Cured (%)) came out at 0%; in the data set on Plasmodium berghei [3] (setting [6]), 60%. Also, the responders at 6 mg/kg/day in the data set on Plasmodium berghei [3] (Table 3, free base, 6 mg/kg/day, four daily doses, oral gavage, read-out: Mice Cured (%)) was determined as 60%; in the data set on Plasmodium berghei [3] (setting [7]) it was 100%. Further, in the data set with Plasmodium berghei [3] (Table 3, free base, 10 mg/kg/day, four daily doses, oral gavage, read-out: Mice Cured (%)), the responders at 10 mg/kg/day turned out to be 100%. Besides, in data set [4], the “Solubility” value worked out at 429 µM (≈ 168 µg/mL).
Regarding `CC(C)(CN)CNC(=O)C[C@@H]1CCC[C@]2(C1)OOC1(O2)C2CC3CC(C2)CC1C3` (stereo partly drawn) [12d, N-(3-Amino-2,2-dimethylpropyl)-2-((R,R)-dispiro[adamantane-2,3′-[1,2,4]trioxolane-5′,1″-cyclohexan]-3″-yl)acetamide], the “T1/2” value in data set [2] came out at 1.07 h. In addition, in data set [2] (mouse, microsomes), the CLint is 10.8 μL/min/mg of protein and the “T1/2 (min) No NADPH” value is given as “stable”. Also, in the data set with Plasmodium berghei [3] (setting [6]), the responders at 4 mg/kg/day was 0%. For the same compound, the responders at 6 mg/kg/day in the data set with Plasmodium berghei [3] (setting [7]) is 0%.
On to `Cc1ncc2n1-c1ccc(Cl)cc1C(c1ccccc1F)=NC2` [midazolam], for which, in data set [2], the “T1/2” value was found to be 0.0275 h. Also, in data set [2] (mouse liver microsomes, CLint = Ln(2)*1000/T1/2/protein concentration), the CLint is 420 μL/min/mg of protein.
For `NC1CCN(C(=O)C[C@@H]2CCC[C@]3(C2)OOC2(O3)C3CC4CC(C3)CC2C4)CC1` (stereo partly drawn) [12i, 1-(4-Aminopiperidin-1-yl)-2-((R,R)-dispiro[adamantane-2,3′-[1,2,4]trioxolane-5′,1″-cyclohexan]-3″-yl)ethan-1-one], the “T1/2” value in data set [2] turned out to be 1.41 h. For the same compound, in data set [2] (mouse, microsomes), the CLint is 8.2 μL/min/mg of protein and the “T1/2 (min) No NADPH” value was “stable”.
`O=C(NCCCNC(=O)C12CC3CC(C1)[C@]1(OO[C@]4(CC[C@@H](c5ccc(OCCN6CCOCC6)cc5)CC4)O1)C(C3)C2)c1ccc(F)cc1` [B9[^18F], N-(3-(4-[^18F]fluorobenzamido)propyl)-4″-(4-(2-morpholinoethoxy)phenyl)dispiro[adamantane-2,3′-[1,2,4]trioxolane-5′,1″-cyclohexane]-5-carboxamide]: in the data set on PC3 tumor (300 μCi i.v. tail vein, 60 minutes post-injection), the “biodistribution, subcutaneous vs renal capsule PC3 tumor” value is recorded as “no major differences noticed between the two xenograft models”. In the data set on PC3 tumor (PC3-bearing mice, 300 μCi i.v. tail vein, 30, 60 and 90 minutes post-injection), the “radioactivity in the tumor” value is recorded as “up to 4 % id/gram”.
As to `c1cc([C@H]2CC[C@]3(CC2)OO[C@]2(O3)C3CC4CC(C3)CC2C4)ccc1OCCN1CCOCC1` [3Z (artefenomel)], the responders at 40 mg/kg with Plasmodium berghei [3] (read-out: Mice Cured (%), Table 7, 40 mg/kg, 1 dose, oral gavage) came out at 100%. Moreover, the responders at 80 mg/kg in the data set with Plasmodium berghei [3] (read-out: Mice Cured (%), Table 7, 80 mg/kg, 1 dose, oral gavage) was 100%.
In the case of `CC(C)(N)CNC(=O)C[C@H]1CC[C@]2(CC1)OO[C@]1(O2)C2CC3CC1CC(C(=O)NCCCNC(=O)c1ccc(F)cc1)(C3)C2` [B20[^18F], (1R,2r,3S,4″S,5S,5′s,7S)-4″-(2-((2-amino-2-methylpropyl)amino)-2-oxoethyl)-N-(3-(4-^18F-fluorobenzamido)propyl)dispiro[adamantane-2,3′-[1,2,4]trioxolane-5′,1′″-cyclohexane]-5-carboxamide], the “radioactivity in the tumor” value in the data set on PC3 tumor (PC3 tumor-bearing nude mice, 300 μCi i.v. tail vein, 60 and 90 minutes post-injection) is on record as “about 0.3 % id/gram”.
Take `O=C(C[C@@H]1CCC[C@]2(C1)OOC1(O2)C2CC3CC(C2)CC1C3)N1CCOCC1` (stereo partly drawn) [12f, 2-((R,R)-Dispiro[adamantane-2,3′-[1,2,4]trioxolane-5′,1″-cyclohexan]-3″-yl)-1-morpholinoethan-1-one]: in data set [5], the “potency of 12f relative to regioisomer 2f” value was “three-fold more potent than 2f”. In addition, in the data set on Plasmodium berghei [3] (setting [6]), the responders at 4 mg/kg/day came out at 0%. In addition, the responders at 6 mg/kg/day in the data set on Plasmodium berghei [3] (setting [7]) is 0%.
For the compound `O=C(C[C@@H]1CCC[C@]2(C1)OOC1(O2)C2CC3CC(C2)CC1C3)N1CCNCC1` (stereo partly drawn) [12g, 2-((R,R)-Dispiro[adamantane-2,3′-[1,2,4]trioxolane-5′,1″-cyclohexan]-3″-yl)-1-(piperazin-1-yl)ethan-1-one], the “T1/2” value in data set [2] was 0.425 h. In data set [2] (mouse, microsomes), the CLint is listed as 27.2 μL/min/mg of protein and the “T1/2 (min) No NADPH” value was “stable”. Besides, in the data set on Plasmodium berghei [3] (setting [6]), the responders at 4 mg/kg/day is 0%. For the same compound, the responders at 6 mg/kg/day in the data set on Plasmodium berghei [3] (setting [7]) was 20%.
As for `N[C@H]1CC[C@H](NC(=O)C[C@@H]2CCC[C@]3(C2)OOC2(O3)C3CC4CC(C3)CC2C4)CC1` (stereo partly drawn) [12j, N-((trans)-4-Aminocyclohexyl)-2-((R,R)-dispiro[adamantane-2,3′-[1,2,4]trioxolane-5′,1″-cyclohexan]-3″-yl)acetamide], the responders at 4 mg/kg/day in the data set on Plasmodium berghei [3] (setting [6]) worked out at 60%. The responders at 6 mg/kg/day in the data set on Plasmodium berghei [3] (setting [7]) worked out at 100%.
